Three compounds from patent US7196094B2, “Farnesyl transferase inhibiting 6-heterocyclylmethyl quinoline and quinazoline derivatives” (Janssen Pharmaceutica, N.V., priority 2000, dated 2007) can be followed below.

Broadly, the melting point is the temperature of the solid-liquid transition. Regarding `Cn1cncc1C(O)(c1ccoc1)c1ccc2c(c1)c(-c1cccc(Cl)c1)cc1nnnn12` (stereo not drawn) [Compound 3, 5-(3-chlorophenyl)-α-(3-furanyl)-α-(1-methyl-1H-imidazol-5-yl)-tetrazolo[1,5-a]quinoline-7-methanol], the melting point came to 188 °C.

`Cn1cncc1C(O)(c1ccc2ncccc2c1)c1ccc2c(c1)c(-c1cccc(Cl)c1)nc(=O)n2C` (stereo not drawn) [Compound 7, 4-(3-chlorophenyl)-6-[hydroxy(1-methyl-1H-imidazol-5-yl)-6-quinolinylmethyl]-1-methyl-2(1H)-quinazolinone]: the melting point came out at 192 °C.

Take `Cn1cncc1C(c1ccc2c(c1)c(-c1cccc(Cl)c1)nc1nnnn12)n1ccnc1-c1ccccc1` (stereo not drawn) [Compound 10, 5-(3-chlorophenyl)-7-[(1-methyl-1H-imidazol-5-yl)(2-phenyl-1H-imidazol-1-yl)methyl]-tetrazolo[1,5-a]quinazoline]: the melting point came to 150 °C.
